Results reported in patent US20090317452A1, “Transdermal patch” (Sekisui Chemical Co. td., priority 2006, published 2009).

How the values were obtained:
Format in all cases: physicochemical
[1] = Residual rate of the active substance in monomer solution (HPLC); conditions: for Residual Rate (% by weight) after 7 Days: 25° C.
[2] = Solvency of the active substance in monomers (visual inspection); set-up: key: Excellent: The active substance was not found to have been precipitated in the solution of active substance both immediately after the preparation and after the preservation for 7 days.; Good: The active substance was found to have been precipitated in the solution of active substance immediately after the preparation, but the active substance was not found to have been precipitated in the solution of active substance after the preservation for 7 days.; Poor: The active substance was found to have been precipitated in the solution of active substance both immediately after the preparation and after the preservation for 7 days; conditions: 25° C., 7 days
[3] = Solubility of DMAE at 25° C. in alcohol/additive
From the text: When the content of the saturated aliphatic monohydric alcohol is small in the plaster layer described above, the solvency and diffusibility of the DMAEs in the plaster layer decrease, and the transdermal absorbency of the DMAEs becomes insufficient. When the content of the saturated aliphatic monohydric alcohol is large in the plaster layer, the acrylic adhesive in the plaster layer becomes excessively plasticized, leading to an adhesive transfer when the transdermal patch is removed away from the skin. Therefore, the content of the saturated aliphatic monohydric alcohol in the plaster layer is limited to 1 to 30% by weight, and preferably 5 to 30%.
An excess amount of DMAEs is added to the saturated aliphatic monohydric alcohol, a weight W0 (g) of the alcohol being measured in advance; a solution temperature is set at 50° C. to keep the warmth for one hour or more than one hour; and then a shaking operation is continued in a water bath of 25° C. for 10 minutes by means of supersonic waves to prepare a DMAEs saturated solution. Next, the DMAEs saturated solution, after being arranged to stand still for 24 hours at 25° C., is centrifuged at a speed of 3000 r.p.m., and a certain amount of clear supernatant solution of the DMAEs saturated solution is collected. Then, such collected clear supernatant solution is subjected to HPLC determination to determine a weight W1 (g) of the DMAEs dissolved in the DMAEs saturated solution, and solubility of the DMAEs with respect to the saturated aliphatic monohydric alcohol is figured out by using the following equation (1).
Solubility of DMAEs (g)=(W1/W0)×100 Equation (1)

[4] = Solvency of DMAE in alcohol/additive; conditions: 25° C.
Procedure: When a crystal of DMAE was precipitated […], and when a crystal of DMAE was not precipitated, the solvency was evaluated to be “poor”.

[5] = 3 parts active substance in 100 parts 1-Vinyl-2-Pyrrolidone
[6] = 3 parts active substance in 100 parts 2-Ethylhexyl Acrylate
[7] = 3 parts active substance in 100 parts 2-Ethylhexyl Methacrylate
[8] = 3 parts active substance in 100 parts Acrylic Acid
[9] = 3 parts active substance in 100 parts Butyl Acrylate
[10] = 3 parts active substance in 100 parts Butyl Methacrylate
[11] = 3 parts active substance in 100 parts Dodecyl Methacrylate
[12] = 3 parts active substance in 100 parts Ethyl Acrylate

In the case of `COc1ccc2c(c1)c(CC(=O)O)c(C)n2C(=O)c1ccc(Cl)cc1` [IMT, indomethacin], the “Residual Rate (% by weight) Immediately after Preparation” value (“Residual Rate (% by weight) Immediately” for short) ([1]; in 1-Vinyl-2-Pyrrolidone) is reported as 100 % by weight, the “Residual Rate (% by weight) after 7 Days” value ([1]; in 1-Vinyl-2-Pyrrolidone) is reported as 100 % by weight and the “Residual Rate (% by weight) Immediately” value ([1]; in 2-Ethylhexyl Acrylate) is reported as 100 % by weight. For the same compound, the “Residual Rate (% by weight) after 7 Days” value ([1]; in 2-Ethylhexyl Acrylate) was 100 % by weight, the “Residual Rate (% by weight) Immediately” value ([1]; in 2-Ethylhexyl Methacrylate) was 100 % by weight and the “Residual Rate (% by weight) after 7 Days” value ([1]; in 2-Ethylhexyl Methacrylate) was 100 % by weight. For the same compound, the “Residual Rate (% by weight) Immediately” value ([1]; in Acrylic Acid) was 100 % by weight, the “Residual Rate (% by weight) after 7 Days” value ([1]; in Acrylic Acid) was 100 % by weight and the “Residual Rate (% by weight) Immediately” value ([1]; in Butyl Acrylate) was 100 % by weight. For the same compound, the “Residual Rate (% by weight) after 7 Days” value ([1]; in Butyl Acrylate, N.D. = equal to or less than the HPLC detection limit) was 100 % by weight, the “Residual Rate (% by weight) Immediately” value ([1]; in Butyl Methacrylate) was 100 % by weight and the “Residual Rate (% by weight) after 7 Days” value ([1]; in Butyl Methacrylate) was 99 % by weight. For the same compound, the “Residual Rate (% by weight) Immediately” value ([1]; in Dodecyl Methacrylate) was 100 % by weight, the “Residual Rate (% by weight) after 7 Days” value ([1]; in Dodecyl Methacrylate) was 100 % by weight and the “Residual Rate (% by weight) after 7 Days” value ([1]; in Ethyl Acrylate) was 99 % by weight. The “Residual Rate (% by weight) Immediately” value ([1]; in Ethyl Acrylate, N.D. = equal to or less than the HPLC detection limit) was 100 % by weight, the “Solvency of the active substance” value [2, 5] was “Excellent” and the “Solvency of the active substance” value [2, 6] was “Poor”. For the same compound, the “Solvency of the active substance” value [2, 7] was “Poor”, the “Solvency of the active substance” value [2, 8] was “Excellent” and the “Solvency of the active substance” value [2, 9] was “Poor”. The “Solvency of the active substance” value [2, 10] was “Poor”, the “Solvency of the active substance” value [2, 11] was “Poor” and the “Solvency of the active substance” value [2, 12] was “Poor”.

In the case of `COc1ccc(OC)c(C(O)CN)c1` (stereo not shown) [DMAE, 2-amino-1-(2′,5′-dimethoxyphenyl)ethanol], the “Residual Rate (% by weight) Immediately” value ([1]; in 1-Vinyl-2-Pyrrolidone) is reported as 100 % by weight, the “Residual Rate (% by weight) after 7 Days” value ([1]; in 1-Vinyl-2-Pyrrolidone) is reported as 100 % by weight and the “Residual Rate (% by weight) Immediately” value ([1]; in 2-Ethylhexyl Acrylate) is reported as 39 % by weight. The “Residual Rate (% by weight) after 7 Days” value ([1]; in 2-Ethylhexyl Acrylate) was 11 % by weight, the “Residual Rate (% by weight) Immediately” value ([1]; in 2-Ethylhexyl Methacrylate) was 99 % by weight and the “Residual Rate (% by weight) after 7 Days” value ([1]; in 2-Ethylhexyl Methacrylate) was 99 % by weight. The “Residual Rate (% by weight) Immediately” value ([1]; in Acrylic Acid) was 99 % by weight, the “Residual Rate (% by weight) after 7 Days” value ([1]; in Acrylic Acid) was 97 % by weight and the “Residual Rate (% by weight) Immediately” value ([1]; in Butyl Acrylate) was 27 % by weight. For the same compound, the “Residual Rate (% by weight) Immediately” value ([1]; in Butyl Methacrylate) was 98 % by weight, the “Residual Rate (% by weight) after 7 Days” value ([1]; in Butyl Methacrylate) was 98 % by weight and the “Residual Rate (% by weight) Immediately” value ([1]; in Dodecyl Methacrylate) was 100 % by weight. For the same compound, the “Residual Rate (% by weight) after 7 Days” value ([1]; in Dodecyl Methacrylate) was 99 % by weight, the “Solubility of DMAE” value ([3]; g DMAE per 100 g Diethyl Sebacate at 25° C.) was 0.87 g and the “Solubility of DMAE” value ([3]; g DMAE per 100 g Hexyldecanol at 25° C.) was 1.4 g. For the same compound, the “Solubility of DMAE” value ([3]; g DMAE per 100 g Isostearyl Alcohol at 25° C.) was 1.8 g, the “Solubility of DMAE” value ([3]; g DMAE per 100 g Lauryl Alcohol at 25° C.) was 2.6 g and the “Solubility of DMAE” value ([3]; g DMAE per 100 g Liquid Paraffin at 25° C.) was 0.02 g. The “Solubility of DMAE” value ([3]; g DMAE per 100 g Medium-chain Triglyceride at 25° C.) was 0.31 g, the “Solubility of DMAE” value ([3]; g DMAE per 100 g Octyldodecanol at 25° C.) was 0.84 g and the “Solubility of DMAE” value ([3]; g DMAE per 100 g Oleic Acid at 25° C.) was 3.7 g. The “Solubility of DMAE” value ([3]; g DMAE per 100 g Oleyl Alcohol at 25° C.) was 2.5 g, the “Solubility of DMAE” value ([3]; g DMAE per 100 g Polyoxyethylene (2) Lauryl Ether at 25° C.) was 3.7 g and the “Solubility of DMAE” value ([3]; g DMAE per 100 g Squalane at 25° C.) was 0.01 g. For the same compound, the “Solvency of the active substance” value [2, 5] was “Poor”, the “Solvency of the active substance” value [2, 6] was “Poor” and the “Solvency of the active substance” value [2, 7] was “Poor”. For the same compound, the “Solvency of the active substance” value [2, 8] was “Excellent”, the “Solvency of the active substance” value [2, 9] was “Good” and the “Solvency of the active substance” value [2, 10] was “Poor”. The “Solvency of the active substance” value [2, 11] was “Poor”, the “Solvency of the active substance” value [2, 12] was “Excellent” and the “Solvency of DMAE” value ([4]; 50 parts DMAE in 950 parts Butylene Glycol) was “Poor”. For the same compound, the “Solvency of DMAE” value ([4]; 50 parts DMAE in 950 parts Diethyl Sebacate) was “Excellent”, the “Solvency of DMAE” value ([4]; 50 parts DMAE in 950 parts Hexyldecanol) was “Excellent” and the “Solvency of DMAE” value ([4]; 50 parts DMAE in 950 parts Isostearic Acid) was “Poor”. For the same compound, the “Solvency of DMAE” value ([4]; 50 parts DMAE in 950 parts Isostearyl Alcohol) was “Excellent”, the “Solvency of DMAE” value ([4]; 50 parts DMAE in 950 parts Lauryl Alcohol) was “Excellent” and the “Solvency of DMAE” value ([4]; 50 parts DMAE in 950 parts Liquid Paraffin) was “Excellent”. The “Solvency of DMAE” value ([4]; 50 parts DMAE in 950 parts Medium-chain Triglyceride) was “Excellent”, the “Solvency of DMAE” value ([4]; 50 parts DMAE in 950 parts Monoethanolamine) was “Poor” and the “Solvency of DMAE” value ([4]; 50 parts DMAE in 950 parts Octanediol) was “Poor”. For the same compound, the “Solvency of DMAE” value ([4]; 50 parts DMAE in 950 parts Octyldodecanol) was “Excellent”, the “Solvency of DMAE” value ([4]; 50 parts DMAE in 950 parts Oleic Acid) was “Excellent” and the “Solvency of DMAE” value ([4]; 50 parts DMAE in 950 parts Oleyl Alcohol) was “Excellent”. The “Solvency of DMAE” value ([4]; 50 parts DMAE in 950 parts Polyoxyethylene (2) Lauryl Ether) was “Excellent”, the “Solvency of DMAE” value ([4]; 50 parts DMAE in 950 parts Propylene Glycol) was “Poor” and the “Solvency of DMAE” value ([4]; 50 parts DMAE in 950 parts Squalane) was “Excellent”. The “Solvency of DMAE” value ([4]; 50 parts DMAE in 950 parts Triacetin) was “Poor”.
